pEC50: −log10 of the molar value.
Target: GLP-1R (Homo sapiens, UniProt P43220)
Assay: GLP-1R Activation - cAMP Assay
Assay type: cell-based
Settings: cAMP increase in CHO cells stably expressing GLP-1R; each compound run on one of the two cAMP assays (Assay 1 or Assay 2, not specified)
In short: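 cAMP rise read by HTRF after 30 min agonist exposure (10-point titration, 37 °C) in HBSS/20 mM Hepes/0.1% BSA, following 1 h pre-incubation. Cells: stable GLP-1R CHO line, 1,000/well, seeded overnight. Sigmoidal fit of response vs log concentration gives EC50.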

GLP-1R, sequence (P43220 24-463): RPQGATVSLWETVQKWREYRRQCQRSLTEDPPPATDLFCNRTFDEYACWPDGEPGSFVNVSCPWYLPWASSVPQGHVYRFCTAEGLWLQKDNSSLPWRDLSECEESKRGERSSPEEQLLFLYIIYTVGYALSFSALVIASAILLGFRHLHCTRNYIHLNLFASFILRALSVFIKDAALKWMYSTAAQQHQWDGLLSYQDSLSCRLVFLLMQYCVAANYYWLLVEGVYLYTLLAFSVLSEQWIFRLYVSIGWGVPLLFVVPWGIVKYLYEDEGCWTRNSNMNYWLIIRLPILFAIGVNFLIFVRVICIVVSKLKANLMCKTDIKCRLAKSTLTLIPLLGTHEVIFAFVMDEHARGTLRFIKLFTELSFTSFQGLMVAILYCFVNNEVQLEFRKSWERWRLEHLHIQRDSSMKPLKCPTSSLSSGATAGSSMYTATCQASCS

| Compound | pEC50 |
| --- | --- |
| CC1(C)COC[C@H]1n1c(Cc2cc(F)c(-c3cccc(OCc4ccc(Cl)cc4F)n3)cc2F)nc2cc(O)c(C(=O)O)cc21 [Example 400, (S)-2-(4-(6-((4-chloro-2-fluorobenzyl)oxy)pyridin-2-yl)-2,5-difluorobenzyl)-1-(4,4-dimethyltetrahydrofuran-3-yl)-5-hydroxy-1H-benzo[d]imidazole-6-carboxylic acid] | 9.36 |
| Cc1cc(Cc2nc3ccc(C(=O)O)cc3n2[C@@H]2COCC2(C)C)c(Cl)cc1-c1cccc(OCc2cnc(-n3ccnn3)cc2Cl)n1 [Example 156, (S)-2-(2-chloro-4-(6-((4-chloro-6-(1H-1,2,3-triazol-1-yl)pyridin-3-yl)methoxy)pyridin-2-yl)-5-methylbenzyl)-1-(4,4-dimethyltetrahydrofuran-3-yl)-1H-benzo[d]imidazole-6-carboxylic Acid] | 10.19 |
| CC1(C)COC[C@H]1n1c(Cc2c(F)cc(-c3cccc(OCc4ccc(-n5ccnn5)cc4F)n3)c(F)c2F)nc2c(F)cc(C(=O)O)cc21 [Example 241, (S)-1-(4,4-dimethyltetrahydrofuran-3-yl)-4-fluoro-2-(2,3,6-trifluoro-4-(6-((2-fluoro-4-(1H-1,2,3-triazol-1-yl)benzyl)oxy)pyridin-2-yl)benzyl)-1H-benzo[d]imidazole-6-carboxylic acid] | 10.89 |
| CC1(C)COC[C@H]1n1c(Cc2c(F)cc(-c3ccc(F)c(OCc4ccc(C#N)cc4F)n3)c(F)c2F)nc2ccc(C(=O)O)cc21 [Example 482, (S)-2-(4-(6-((4-cyano-2-fluorobenzyl)oxy)-5-fluoropyridin-2-yl)-2,3,6-trifluorobenzyl)-1-(4,4-dimethyltetrahydrofuran-3-yl)-1H-benzo[d]imidazole-6-carboxylic acid] | 10.96 |
| N#Cc1ccc(COc2cccc(-c3cc(F)c(Cc4nc5ccc(C(=O)O)cc5n4C4CC45CC5)cc3F)n2)c(F)c1 (centres unmarked) [Example 62] | 8.14 |
| O=C(O)c1cc(F)c2nc(Cc3cc(F)c(-c4nccc(OCc5ccc(C(F)(F)F)cc5F)n4)cc3F)n(C[C@@H]3CCO3)c2c1 [Example 149] | 10.09 |
| CC1(C)COC[C@H]1n1c(Cc2cc(F)c(-c3ccc(F)c(OCc4ccccc4F)n3)cc2F)nc2ccc(C(=O)O)cc21 [Example 477, (S)-2-(2,5-difluoro-4-(5-fluoro-6-((2-fluorobenzyl)oxy)pyridin-2-yl)benzyl)-1-(4,4-dimethyltetrahydrofuran-3-yl)-1H-benzo[d]imidazole-6-carboxylic acid] | 9.77 |
| CC1(C)COC[C@H]1n1c(Cc2cc(F)c(-c3ccnc(OCc4ccc(C#N)cc4F)n3)cc2F)nc2ccc(C(=O)O)cc21 [Example 198, (S)-2-(4-(2-((4-cyano-2-fluorobenzyl)oxy)pyrimidin-4-yl)-2,5-difluorobenzyl)-1-(4,4-dimethyltetrahydrofuran-3-yl)-1H-benzo[d]imidazole-6-carboxylic acid] | 9.29 |
| COCCn1c(Cc2cc(C)c(-c3ccc(F)c(OCc4ccc(C#N)cc4F)n3)cc2Cl)nc2c(F)cc(C(=O)O)cc21 [Example 225, 2-(2-chloro-4-(6-((4-cyano-2-fluorobenzyl)oxy)-5-fluoropyridin-2-yl)-5-methylbenzyl)-4-fluoro-1-(2-methoxyethyl)-1H-benzo[d]imidazole-6-carboxylic acid] | 8.15 |
| COCCn1c(Cc2c(F)cc(-c3cccc(OCc4ccc(-n5ccnn5)nc4)n3)c(F)c2F)nc2c(F)cc(C(=O)O)cc21 [Example 253, 2-(4-(6-((6-(1H-1,2,3-triazol-1-yl)pyridin-3-yl)methoxy)pyridin-2-yl)-2,3,6-trifluorobenzyl)-4-fluoro-1-(2-methoxyethyl)-1H-benzo[d]imidazole-6-carboxylic acid] | 10.15 |
| N#Cc1ccc(COc2cccc(-c3cc(F)c(Cc4nc5ccc(C(=O)O)cc5n4[C@@H]4CO[C@H]5OCC[C@H]54)cc3F)n2)c(F)c1 [Example 19] | 9.22 |
| COCCn1c(Cc2c(F)cc(-c3ccc(F)c(OCc4ccc(-n5ccnn5)cc4)n3)c(F)c2F)nc2c(F)cc(C(=O)O)cc21 [Example 223, 2-(4-(6-((4-(1H-1,2,3-triazol-1-yl)benzyl)oxy)-5-fluoropyridin-2-yl)-2,3,6-trifluorobenzyl)-4-fluoro-1-(2-methoxyethyl)-1H-benzo[d]imidazole-6-carboxylic acid] | 9.90 |
| COCCn1c(Cc2ccc(-c3cccc(OCc4ccc(C#N)cc4F)c3)nc2)nc2ccc(C(=O)O)cc21 [Example 46] | 7.68 |
| C[C@H]1COC[C@H]1n1c(Cc2cc(F)c(-c3ccnc(OCc4ccc(Cl)cc4F)n3)cc2F)nc2ccc(C(=O)O)cc21 [Example 484, 2-(4-(2-((4-chloro-2-fluorobenzyl)oxy)pyrimidin-4-yl)-2,5-difluorobenzyl)-1-((3S,4R)-4-methyltetrahydrofuran-3-yl)-1H-benzo[d]imidazole-6-carboxylic acid] | 9.81 |
| CC1(C)COC[C@H]1n1c(Cc2c(F)cc(-c3ccc(F)c(OCc4ccc(Cl)cc4)n3)c(F)c2F)nc2ccc(C(=O)O)cc21 [Example 282, (S)-2-(4-(6-((4-chlorobenzyl)oxy)-5-fluoropyridin-2-yl)-2,3,6-trifluorobenzyl)-1-(4,4-dimethyltetrahydrofuran-3-yl)-1H-benzo[d]imidazole-6-carboxylic acid] | 9.72 |
| N#Cc1ccc(COc2cccc(-c3cc(F)c(Cc4nc5ccc(C(=O)O)cc5n4[C@H]4COC[C@@H]4C(F)F)cc3F)n2)c(F)c1 (single isomer, unassigned) [Example 262] | 8.97 |
| N#Cc1ccc(COc2cccc(-c3cc(F)c(Cc4nc5ccc(C(=O)O)cc5n4[C@@H]4COC[C@H]4C(F)F)cc3F)n2)c(F)c1 (single isomer, unassigned) [Example 261] | 8.39 |
| CC1(C)COCC1n1c(Cc2cc(F)c(-c3cccc(OCc4cnc(Cl)cn4)n3)cc2F)nc2ccc(C(=O)O)cc21 (centres unmarked) [Example 93, 2-(4-(6-((5-chloropyrazin-2-yl)methoxy)pyridin-2-yl)-2,5-difluorobenzyl)-1-(4,4-dimethyltetrahydrofuran-3-yl)-1H-benzo[d]imidazole-6-carboxylic Acid] | 9.46 |
| CC1(C)COCC1n1c(Cc2cc(F)c(-c3ccc(F)c(OCc4ccc(C#N)cc4F)n3)cc2Cl)nc2c(F)cc(C(=O)O)cc21 (centres unmarked) [Example 346, 2-(2-chloro-4-(6-((4-cyano-2-fluorobenzyl)oxy)-5-fluoropyridin-2-yl)-5-fluorobenzyl)-1-(4,4-dimethyltetrahydrofuran-3-yl)-4-fluoro-1H-benzo[d]imidazole-6-carboxylic acid] | 10.12 |
| N#Cc1ccc(COc2cccc(-c3cc(F)c(Cc4nc5ccc(C(=O)O)cc5n4[C@H]4COC[C@H]4CO)cc3F)n2)c(F)c1 (single isomer, unassigned) [Example 436] | 9.00 |
| Cn1cc(-c2cc(F)c(COc3cccc(-c4cc(F)c(Cc5nc6ccc(C(=O)O)cc6n5[C@@H]5COCC5(C)C)cc4F)n3)cn2)cn1 (single isomer, unassigned) [Example 58] | 9.24 |
| COC[C@H]1COC[C@H]1n1c(Cc2cc(F)c(-c3cccc(OCc4ccc(C#N)cc4)n3)cc2F)nc2ccc(C(=O)O)cc21 [Example 468, 2-(4-(6-((4-cyanobenzyl)oxy)pyridin-2-yl)-2,5-difluorobenzyl)-1-((3S,4S)-4-(methoxymethyl)tetrahydrofuran-3-yl)-1H-benzo[d]imidazole-6-carboxylic acid] | 9.93 |
| O=C(O)c1ccc2nc(Cc3cc(F)c(-c4cccc(OCc5ccc6nsnc6c5)n4)cc3F)n(C[C@@H]3CCO3)c2c1 [Example 527, (S)-2-(4-(6-(benzo[c][1,2,5]thiadiazol-5-ylmethoxy)pyridin-2-yl)-2,5-difluorobenzyl)-1-(oxetan-2-ylmethyl)-1H-benzo[d]imidazole-6-carboxylic acid] | 9.74 |
| N#Cc1ccc(COc2cccc(-c3cc(F)c(Cc4nc5ccc(C(=O)O)cc5n4[C@H]4COCC45CC5)cc3F)n2)c(F)c1 (single isomer, unassigned) [Example 259] | 9.24 |
| COC(=O)N1Cc2ccc(COc3nc(-c4cc(F)c(Cc5nc6ccc(C(=O)O)cc6n5C[C@@H]5CCO5)cc4F)ccc3F)cc2C1 [Example 516, (S)-2-(2,5-difluoro-4-(5-fluoro-6-((2-(methoxycarbonyl)isoindolin-5-yl)methoxy)pyridin-2-yl)benzyl)-1-(oxetan-2-ylmethyl)-1H-benzo[d]imidazole-6-carboxylic acid] | 10.06 |
| CC1(C)COC[C@H]1n1c(Cc2cc(F)c(-c3cccc(OCc4ccc(F)cc4Cl)n3)cc2F)nc2ccc(C(=O)O)cc21 [Example 464, (S)-2-(4-(6-((2-chloro-4-fluorobenzyl)oxy)pyridin-2-yl)-2,5-difluorobenzyl)-1-(4,4-dimethyltetrahydrofuran-3-yl)-1H-benzo[d]imidazole-6-carboxylic acid] | 9.76 |
| COCCn1c(Cc2cc(F)c(-c3cccc(OCc4ncc(F)cc4F)n3)cc2F)nc2ccc(C(=O)O)cc21 [Example 31, 2-(4-(6-((3,5-difluoropyridin-2-yl)methoxy)pyridin-2-yl)-2,5-difluorobenzyl)-1-(2-methoxyethyl)-1H-benzo[d]imidazole-6-carboxylic Acid] | 7.52 |
| Cc1cc(Cc2nc3ccc(C(=O)O)cc3n2[C@@H]2COCC2(C)C)c(F)cc1-c1cccc(OCc2ccc(Cl)cc2F)n1 [Example 280, (S)-2-(4-(6-((4-chloro-2-fluorobenzyl)oxy)pyridin-2-yl)-2-fluoro-5-methylbenzyl)-1-(4,4-dimethyltetrahydrofuran-3-yl)-1H-benzo[d]imidazole-6-carboxylic acid] | 9.78 |
| CC1(C)COC[C@H]1n1c(Cc2cc(F)c(-c3cccc(OCc4ccc(F)c(F)c4)n3)cc2F)nc2ccc(C(=O)O)cc21 [Example 457, (S)-2-(4-(6-((3,4-difluorobenzyl)oxy)pyridin-2-yl)-2,5-difluorobenzyl)-1-(4,4-dimethyltetrahydrofuran-3-yl)-1H-benzo[d]imidazole-6-carboxylic acid] | 9.80 |

Source: patent US12570642B2, “GLP-IR modulating compounds” (Gilead Sciences, Inc., priority 2021, dated 2026)
